# From publication PMC10375895, “Repurposed Fenoprofen Targeting SaeR Attenuates Staphylococcus aureus Virulence in Implant-Associated Infections” (ACS Central Science, 2023)
# Target: SaeR (response regulator) (Staphylococcus aureus, UniProt Q2G2G2)
# Assay: SPR titration with purified SaeR ([…]); EMSA shows loss of hla promoter DNA binding
# SaeR (response regulator), sequence (Q2G2G2 whole entry): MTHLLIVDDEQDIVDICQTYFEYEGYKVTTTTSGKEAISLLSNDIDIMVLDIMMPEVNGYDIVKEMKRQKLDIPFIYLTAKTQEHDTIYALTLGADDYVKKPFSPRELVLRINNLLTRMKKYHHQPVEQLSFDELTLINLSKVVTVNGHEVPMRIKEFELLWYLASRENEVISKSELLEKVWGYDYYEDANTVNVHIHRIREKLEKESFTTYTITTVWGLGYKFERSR
structure (smiles),measurement,value
CC(C(=O)O)c1cccc(Oc2ccccc2)c1 (stereo not shown) [fenoprofen],Kd,16.5 µM
